From publication PMC4997874 (Antimicrobial Agents and Chemotherapy, 2016)
Where “and” joins values, the source holds several entries; their conditions need not be identical. Equal entries are not always repeated. Structures can show the parent of a compound that is named as a salt. Marks after values point to notes of the source that are not given here.

What was measured:
[1] = system: PrP^Sc-positive hTERT-ovine microglia; assay: cells; type: cell-based; settings: Ovis aries, 96 h, read-out: % cell count
[2] = target: PrP^Sc in scrapie-positive sheep brain homogenate (Ovis aries, UniProt P23907); type: biochemical
[3] = system: PrP^Sc-positive hTERT-ovine microglia; assay: cells; type: cell-based; settings: for activity at 1 µM: Ovis aries, Microglia, 96 h, read-out: % BrdU incorporation
in vitro = settings: sheep; for viability at 1 µM: % cell viability
[4] = system: PrP^Sc accumulation in persistently infected hTERT-ovine microglia; type: cell-based; settings: for EC50: read-out: TC-EC50 (50% tissue culture effective concentration)
[5] = system: PrP^Sc-positive hTERT-ovine microglia
[6] = system: PrP^Sc accumulation in scrapie-infected primary ovine microglia; settings: cited from earlier work
[7] = system: total PrP^C in PrP^Sc-negative hTERT-ovine microglia; type: cell-based
[8] = system: PRNP transcripts in PrP^Sc-negative hTERT-ovine microglia; type: cell-based

PrP^Sc in scrapie-positive sheep brain homogenate, sequence (P23907 25-233 limits assumed): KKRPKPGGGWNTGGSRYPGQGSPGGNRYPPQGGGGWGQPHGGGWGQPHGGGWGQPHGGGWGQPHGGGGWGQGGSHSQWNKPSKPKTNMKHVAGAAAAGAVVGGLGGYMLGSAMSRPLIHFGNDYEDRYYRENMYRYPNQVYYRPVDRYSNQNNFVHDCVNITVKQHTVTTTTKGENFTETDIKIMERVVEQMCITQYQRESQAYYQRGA

Q: What does the source list for `N=C(N)c1ccc(-c2ccc(-c3nc4ccc(C(=N)N)cc4[nH]3)s2)cc1` [DB818A]?
A: viability at 1 µM [1]: 85%; Stabilization of PrP^Sc against PK digestion [2]: significant stabilization of PrP^Sc was not detected; activity at 1 µM [3]: 76%; CC50 (in vitro): > 3160 nM; viability at 1 µM (in vitro): 170%; % reduction in PrP^Sc [4]: 74^f %; EC50 [4]: 460 ± 80 nM

Q: What does the source list for `c1ccc(-c2ccc(-c3nc4ccc(C5=NCCN5)cc4[nH]3)s2)cc1` [DB953]?
A: viability at 1 µM (in vitro): 134%; % reduction in PrP^Sc [4]: 53^f %

Q: Which results are given for `N=C(N)c1ccc2nc(-c3ccc(-c4ccc(C(N)=O)cc4)s3)[nH]c2c1` [DB1933]?
A: viability at 1 µM (in vitro): 127%; % reduction in PrP^Sc [4]: 39%

Q: Which viability at 1 µM [1] does the source give for `N=C(N)c1ccc2nc(-c3ccc(-c4ccc(OCc5cn(CCc6cccc7ccccc67)nn5)cc4)s3)[nH]c2c1` [DB2228] here?
A: 82%

Q: What about the “Effect on cell proliferation (BrdU) over the 4-day treatment period” value (“Effect … over the 4-day treatment period” for short) [3] of the same compound?
A: significant effect on cell proliferation was not detected

Q: What about the activity at 1 µM [3] of the same compound?
A: 92%

Q: And the CC50 (in vitro)?
A: > 3160 nM

Q: And the viability at 1 µM (in vitro)?
A: 120%

Q: What about the “% reduction in PrP^Sc” value [4] of the same compound?
A: 63^f %

Q: What about the “Selectivity index (CC50/TC-EC50)” value [4] of the same compound?
A: >15.8^e

Q: And the EC50 [4]?
A: 200 ± 80 nM

Q: Which viability at 1 µM [1] does the source give for `N=C(N)c1ccc(-c2ccc(-c3ccc(-c4nc5ccc(C(=N)N)cc5[nH]4)cc3)o2)nc1` [DB1264] here?
A: 89%

Q: What about the “Effect … over the 4-day treatment period” value [3] of the same compound?
A: significant effect on cell proliferation was not detected

Q: And the activity at 1 µM [3]?
A: 77%

Q: What about the CC50 (in vitro) of the same compound?
A: > 3160 nM

Q: What about the viability at 1 µM (in vitro) of the same compound?
A: 138%

Q: What about the “% reduction in PrP^Sc” value [4] of the same compound?
A: 68^f %

Q: What about the “Selectivity index (CC50/TC-EC50)” value [4] of the same compound?
A: >8.1^e

Q: And the EC50 [4]?
A: 390 ± 60 nM

Q: With `c1ccc2[nH]c(-c3ccc(-c4ccc(C5=NCCN5)cc4)s3)nc2c1` [DB932A] as the compound, how does the viability at 1 µM [1] read?
A: 92%

Q: What about the “Stabilization of PrP^Sc against PK digestion” value [2] of the same compound?
A: significant stabilization of PrP^Sc was not detected

Q: And the activity at 1 µM [3]?
A: 66%

Q: And the CC50 (in vitro)?
A: 2500 ± 300 nM

Q: And the viability at 1 µM (in vitro)?
A: 81%

Q: And the “% reduction in PrP^Sc” value [4]?
A: 70^f %

Q: And the EC50 [4]?
A: 390 ± 110 nM

Q: With `N=C(N)c1ccc2nc(-c3ccc(-c4nc5ccc(C(=N)N)cc5[nH]4)[nH]3)[nH]c2c1` [DB192] as the compound, how does the viability at 1 µM [1] read?
A: 98%

Q: And the “Effect … over the 4-day treatment period” value [3]?
A: significant effect on cell proliferation was not detected

Q: And the activity at 1 µM [3]?
A: 101%

Q: And the CC50 (in vitro)?
A: > 3160 nM

Q: And the viability at 1 µM (in vitro)?
A: 150%

Q: What about the “% reduction in PrP^Sc” value [4] of the same compound?
A: 61^d %

Q: What about the “Selectivity index (CC50/TC-EC50)” value [4] of the same compound?
A: >3.5^e

Q: And the EC50 [4]?
A: 910 ± 80 nM

Q: Which viability at 1 µM [1] does the source give for `Cn1c(-c2ccc(-c3ccc(C4=NCCN4)cc3)o2)nc2ccccc21` [DB948] here?
A: 68%

Q: And the CC50 (in vitro)?
A: 1500 ± 500 nM

Q: What about the viability at 1 µM (in vitro) of the same compound?
A: 60%

Q: And the “% reduction in PrP^Sc” value [4]?
A: 83% and 83^f %

Q: And the EC50 [4]?
A: 430 ± 150 nM

Q: For `N=C(N)c1ccc(-c2ccc(-c3nc4ccccc4[nH]3)o2)cc1` [DB771], which “Stabilization of PrP^Sc against PK digestion” value [2] is on record?
A: significant stabilization of PrP^Sc was not detected

Q: What about the viability at 1 µM (in vitro) of the same compound?
A: 98%

Q: And the “% reduction in PrP^Sc” value [4]?
A: 27%

Q: With `N=C(N)c1ccc(-c2ccc(-c3nc4ccc(C(=N)N)cc4[nH]3)o2)cc1` [DB293] as the compound, how does the viability at 1 µM (in vitro) read?
A: 135%

Q: And the “% reduction in PrP^Sc” value [4]?
A: 51^f %

Q: Which results are given for `N=C(N)c1ccc2nc(-c3ccc(-c4nc5ccc(C(=N)N)cc5[nH]4)s3)[nH]c2c1` [DB1033]?
A: viability at 1 µM [1]: 96%; Effect on cell viability in dilution series [5]: failed to demonstrate any effect on cell viability; activity at 1 µM [3]: 68%; CC50 (in vitro): > 3160 nM; viability at 1 µM (in vitro): 91%; % reduction in PrP^Sc [4]: 81% and 81^d %; Selectivity index (CC50/TC-EC50) [4]: >5.4^e; EC50 [4]: 580 ± 140 nM

Q: With `N=C(N)c1ccc2nc(-c3ccc(-c4ccc(C(=N)N)c(F)c4)o3)[nH]c2c1` [DB989] as the compound, how does the viability at 1 µM (in vitro) read?
A: 126%

Q: And the “% reduction in PrP^Sc” value [4]?
A: 26%

Q: Which results are given for `N=C(N)c1ccc2nc(-c3ccc(NC(=O)Nc4ccc(-c5nc6ccc(C(=N)N)cc6[nH]5)cc4)cc3)[nH]c2c1` [DB2265]?
A: viability at 1 µM (in vitro): 105%; % reduction in PrP^Sc [4]: 28%

Q: For `Cn1c(-c2nc3ccc(C(=N)N)cc3[nH]2)ccc1-c1nc2ccc(C(=N)N)cc2[nH]1` [DB191], which viability at 1 µM [1] is on record?
A: 88%

Q: And the “Effect on cell viability in dilution series” value [5]?
A: failed to demonstrate any effect on cell viability

Q: What about the activity at 1 µM [3] of the same compound?
A: 74%

Q: What about the CC50 (in vitro) of the same compound?
A: > 3160 nM

Q: What about the viability at 1 µM (in vitro) of the same compound?
A: 188%

Q: And the “% reduction in PrP^Sc” value [4]?
A: 65^d %

Q: What about the “Selectivity index (CC50/TC-EC50)” value [4] of the same compound?
A: >6.4^e

Q: What about the EC50 [4] of the same compound?
A: 490 ± 140 nM

Q: Which viability at 1 µM (in vitro) does the source give for `c1cc(-c2ccc(-c3nc4ccc(C5=NCCN5)cc4[nH]3)o2)ccc1C1=NCCN1` [DB302] here?
A: 205%

Q: And the “% reduction in PrP^Sc” value [4]?
A: 19%

Q: Which results are given for `Cc1cc(C(=N)N)ccc1-c1ccc(-c2nc3ccc(C(=N)N)cc3[nH]2)o1` [DB850]?
A: viability at 1 µM (in vitro): 154%; % reduction in PrP^Sc [4]: 11%

Q: With `c1ccc2[nH]c(-c3ccc(-c4ccc(C5=NCCN5)cc4)o3)nc2c1` [DB772, 2-(2-benzimidazolyl)-5-[4-(2-imidazolino)phenyl] furan dihydrochloride] as the compound, how does the viability at 1 µM [1] read?
A: 89%

Q: And the “Inhibition of PrP^Sc accumulation” value [6]?
A: nearly complete inhibition

Q: And the “Effect on PrP^C expression (total PrP)” value [7]?
A: significant effect on PrP^C expression was not detected

Q: And the “Effect on PrP^C expression (PRNP transcripts)” value [8]?
A: significant effect on PrP^C expression was not detected

Q: What about the “Effect … over the 4-day treatment period” value [3] of the same compound?
A: significant effect on cell proliferation was not detected

Q: What about the activity at 1 µM [3] of the same compound?
A: 78%

Q: And the CC50 (in vitro)?
A: 3800 ± 900 nM

Q: And the viability at 1 µM (in vitro)?
A: 96%

Q: And the EC50 [4]?
A: 800 ± 90 nM

Q: With `N=C(N)c1ccc(-c2ccc(-c3ccc(C(=N)N)cc3)o2)cc1` [DB075, furamidine] as the compound, how does the viability at 1 µM (in vitro) read?
A: 149%

Q: And the “% reduction in PrP^Sc” value [4]?
A: 27%

Q: With `N=C(N)c1ccc(-c2ccc(-c3cnc4ccc(C(=N)N)cc4c3)s2)cc1` [DB1504] as the compound, how does the viability at 1 µM [1] read?
A: 102%

Q: And the “Effect … over the 4-day treatment period” value [3]?
A: significant effect on cell proliferation was not detected

Q: And the activity at 1 µM [3]?
A: 100%

Q: What about the CC50 (in vitro) of the same compound?
A: > 3160 nM

Q: And the viability at 1 µM (in vitro)?
A: 156%

Q: What about the “Selectivity index (CC50/TC-EC50)” value [4] of the same compound?
A: >8.1^e

Q: And the EC50 [4]?
A: 390 ± 110 nM

Q: Which results are given for `N=C(N)c1ccc(-c2ccc(-c3ccc(-c4nc5ccc(C(=N)N)cc5[nH]4)cc3)s2)cc1` [DB2214]?
A: viability at 1 µM [1]: 84%; activity at 1 µM [3]: 68%; CC50 (in vitro): > 3160 nM; viability at 1 µM (in vitro): 180%; % reduction in PrP^Sc [4]: 69^f %; EC50 [4]: 260 ± 140 nM

Q: For `N=C(N)c1ccc2nc(-c3ccc(-c4ccc(C(N)=O)cc4)o3)[nH]c2c1` [DB1932], which viability at 1 µM (in vitro) is on record?
A: 120%

Q: And the “% reduction in PrP^Sc” value [4]?
A: 24%

Q: Which results are given for `COc1ccc(-c2ccc(-c3nc4ccc(C(=N)N)cc4[nH]3)s2)cc1` [DB2263]?
A: viability at 1 µM (in vitro): 108%; % reduction in PrP^Sc [4]: 46^f %

Q: With `N=C(N)c1ccc2nc(-c3ccc(-c4ccc([N+](=O)[O-])cc4)o3)[nH]c2c1` [DB472] as the compound, how does the viability at 1 µM (in vitro) read?
A: 120%

Q: And the “% reduction in PrP^Sc” value [4]?
A: 11%

Q: What does the source list for `N=C(N)c1ccc2nc(-c3ccc(-c4ccc(-c5nc6ccc(C(=N)N)cc6[nH]5)o4)cc3)[nH]c2c1` [DB2137]?
A: viability at 1 µM (in vitro): 102%; % reduction in PrP^Sc [4]: 31%

Q: Which viability at 1 µM (in vitro) does the source give for `N=C(N)c1ccc2nc(-c3ccc(-c4ccc(-c5ccccc5)cc4)o3)[nH]c2c1` [DB1275] here?
A: 115%

Q: And the “% reduction in PrP^Sc” value [4]?
A: 49^f %

Q: For `N=C(N)c1ccc2nc(-c3ccc(-c4cccc(-c5ccc(-c6nc7ccc(C(=N)N)cc7[nH]6)o5)c4)o3)[nH]c2c1` [DB2147], which viability at 1 µM (in vitro) is on record?
A: 90%

Q: What about the “% reduction in PrP^Sc” value [4] of the same compound?
A: 37%

Q: Which viability at 1 µM (in vitro) does the source give for `N=C(N)c1ccc2nc(-c3cccc(-c4nc5ccc(C(=N)N)cc5[nH]4)n3)[nH]c2c1` [DB205] here?
A: 127%

Q: What about the “% reduction in PrP^Sc” value [4] of the same compound?
A: 52^d %

Q: For `N=C(N)c1ccc2nc(-c3ccc(-c4ccc(C(=N)N)c(O)c4)o3)[nH]c2c1` [DB992], which viability at 1 µM (in vitro) is on record?
A: 150%

Q: And the “% reduction in PrP^Sc” value [4]?
A: 30%

Q: Which results are given for `Nc1cccc(-c2ccc(-c3nc4ccc(C5=NCCN5)cc4[nH]3)o2)c1` [DB900]?
A: viability at 1 µM (in vitro): 125%; % reduction in PrP^Sc [4]: −5%

Q: Which results are given for `N=C(N)c1ccc2nc(-c3ccc(-c4nc5ccc(C(=N)N)cc5[nH]4)[se]3)[nH]c2c1` [DB1310]?
A: viability at 1 µM [1]: 92%; Effect on cell proliferation (BrdU) over the 4-day treatment period [3]: significant effect on cell proliferation was not detected; activity at 1 µM [3]: 91%; CC50 (in vitro): > 3160 nM; viability at 1 µM (in vitro): 110%; % reduction in PrP^Sc [4]: 77% and 77^d %; Selectivity index (CC50/TC-EC50) [4]: >7.7^e; EC50 [4]: 410 ± 80 nM
